Experimental data taken from the supplement of paper PMC10307832.

Key:
Experiment in all cases: relative viability (nuclei count vs DMSO), 5 days (fraction); higher = more cells survive
[1] = system: A-427
How it was run: (§1)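 Lung cancer cell lines were seeded in 1536-well plates and dosed by pin tool the next day, with either a single drug or a fixed anchor-drug dose combined with five library-drug doses (not always all listed) spaced in √10 steps. Five days later, one step fixed the cells and stained their nuclei (final 0.05% Triton X-100, 1% formaldehyde, 1 ug/ml Hoechst), and nuclei were counted on 4× images. Relative viability is the nuclei count in treated wells divided by the count in vehicle wells, and each value is the median of duplicate plates.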

[2] = system: SW 1573
How it was run: as §1

[3] = system: RERF-LC-KJ
How it was run: as §1

[4] = system: PC-3 [JPC-3]
How it was run: as §1

[5] = system: NCI-H460
How it was run: as §1

[6] = system: NCI-H1734
How it was run: as §1

[7] = system: HOP-62
How it was run: as §1

[8] = system: SK-LU-1
How it was run: as §1

[9] = system: HCC-15
How it was run: as §1

[10] = system: NCI-H1755
How it was run: as §1

[11] = system: NCI-H647
How it was run: as §1

[12] = system: LOU-NH91
How it was run: as §1

[13] = system: NCI-H1975
How it was run: as §1

[14] = system: NCI-H1915
How it was run: as §1

[15] = system: LC-2-ad
How it was run: as §1

[16] = system: NCI-H2126
How it was run: as §1

[17] = system: HCC-78
How it was run: as §1

[18] = system: NCI-H2228
How it was run: as §1

[19] = system: NCI-H358
How it was run: as §1

[20] = system: NCI-H2347
How it was run: as §1

[21] = system: LXF-289
How it was run: as §1

[22] = system: NCI-H1792
How it was run: as §1

For `C=C1C(=O)O[C@@H](CCCCCCCC)[C@@H]1C(=O)O` [C-75] + Cc1nc(NC(=O)N2CCC[C@H]2C(N)=O)sc1-c1ccnc(C(C)(C)C(F)(F)F)c1 [Alpelisib] (partner 2 µM), the relative viability ([1]; first compound 0.08 µM) was 1.06, the relative viability ([1]; first compound 0.253 µM) was 1.08 and the relative viability ([1]; first compound 0.8 µM) was 1.14. For the same molecule, the relative viability ([1]; first compound 2.53 µM) was 0.95, the relative viability ([1]; first compound 8 µM) was 1.03 and the relative viability ([2]; first compound 0.08 µM) was 0.711. It also gave a relative viability ([2]; first compound 0.253 µM) of 0.7, a relative viability ([2]; first compound 0.8 µM) of 0.638 and a relative viability ([2]; first compound 2.53 µM) of 0.683. For the same molecule, the relative viability ([2]; first compound 8 µM) was 0.655, the relative viability ([3]; first compound 0.08 µM) was 0.834 and the relative viability ([3]; first compound 0.253 µM) was 0.875. It also gave a relative viability ([3]; first compound 0.8 µM) of 0.817, a relative viability ([3]; first compound 2.53 µM) of 0.765 and a relative viability ([3]; first compound 8 µM) of 0.979. For the same molecule, the relative viability ([4]; first compound 0.08 µM) was 1.02, the relative viability ([4]; first compound 0.253 µM) was 0.981 and the relative viability ([4]; first compound 0.8 µM) was 1.07. The relative viability ([4]; first compound 2.53 µM) was 1.09, the relative viability ([4]; first compound 8 µM) was 1.12 and the relative viability ([5]; first compound 0.08 µM) was 0.517. For the same molecule, the relative viability ([5]; first compound 0.253 µM) was 0.485, the relative viability ([5]; first compound 0.8 µM) was 0.475 and the relative viability ([5]; first compound 8 µM) was 0.374. For the same molecule, the relative viability ([6]; first compound 0.08 µM) was 0.691, the relative viability ([6]; first compound 0.253 µM) was 0.609 and the relative viability ([6]; first compound 0.8 µM) was 0.69. It also gave a relative viability ([6]; first compound 2.53 µM) of 0.447, a relative viability ([6]; first compound 8 µM) of 0.631 and a relative viability ([7]; first compound 0.08 µM) of 0.9. It also gave a relative viability ([7]; first compound 0.253 µM) of 1.11, a relative viability ([7]; first compound 0.8 µM) of 0.95 and a relative viability ([7]; first compound 2.53 µM) of 0.926. It also gave a relative viability ([7]; first compound 8 µM) of 0.765, a relative viability ([8]; first compound 0.08 µM) of 1.04 and a relative viability ([8]; first compound 0.253 µM) of 1.23. It also gave a relative viability ([8]; first compound 0.8 µM) of 0.909, a relative viability ([8]; first compound 2.53 µM) of 1.02 and a relative viability ([8]; first compound 8 µM) of 0.552. The relative viability ([9]; first compound 0.08 µM) was 0.891, the relative viability ([9]; first compound 0.253 µM) was 0.862 and the relative viability ([9]; first compound 0.8 µM) was 0.873. The relative viability ([9]; first compound 2.53 µM) was 0.641, the relative viability ([9]; first compound 8 µM) was 0.871 and the relative viability ([10]; first compound 0.08 µM) was 0.938. It also gave a relative viability ([10]; first compound 0.253 µM) of 0.823, a relative viability ([10]; first compound 0.8 µM) of 0.913 and a relative viability ([10]; first compound 2.53 µM) of 0.739. The relative viability ([10]; first compound 8 µM) was 0.919, the relative viability ([11]; first compound 0.08 µM) was 0.972 and the relative viability ([11]; first compound 0.253 µM) was 1.28. For the same molecule, the relative viability ([11]; first compound 2.53 µM) was 1, the relative viability ([11]; first compound 8 µM) was 0.643 and the relative viability ([12]; first compound 0.08 µM) was 0.771. It also gave a relative viability ([12]; first compound 0.253 µM) of 0.643, a relative viability ([12]; first compound 0.8 µM) of 0.719 and a relative viability ([12]; first compound 2.53 µM) of 0.744. For the same molecule, the relative viability ([12]; first compound 8 µM) was 0.723, the relative viability ([13]; first compound 0.08 µM) was 0.657 and the relative viability ([13]; first compound 0.253 µM) was 0.675. For the same molecule, the relative viability ([13]; first compound 0.8 µM) was 0.698, the relative viability ([13]; first compound 2.53 µM) was 0.61 and the relative viability ([13]; first compound 8 µM) was 0.66. For the same molecule, the relative viability ([14]; first compound 0.08 µM) was 1.06, the relative viability ([14]; first compound 0.253 µM) was 1.09 and the relative viability ([14]; first compound 0.8 µM) was 1.07. It also gave a relative viability ([14]; first compound 2.53 µM) of 0.51, a relative viability ([14]; first compound 8 µM) of 1.01 and a relative viability ([15]; first compound 0.08 µM) of 0.838. For the same molecule, the relative viability ([15]; first compound 0.253 µM) was 0.822, the relative viability ([15]; first compound 0.8 µM) was 0.828 and the relative viability ([15]; first compound 8 µM) was 0.891. It also gave a relative viability ([16]; first compound 0.08 µM) of 0.79, a relative viability ([16]; first compound 0.253 µM) of 0.826 and a relative viability ([16]; first compound 0.8 µM) of 0.732. For the same molecule, the relative viability ([16]; first compound 2.53 µM) was 0.621, the relative viability ([16]; first compound 8 µM) was 0.774 and the relative viability ([17]; first compound 0.08 µM) was 0.297. It also gave a relative viability ([17]; first compound 0.253 µM) of 0.318, a relative viability ([17]; first compound 0.8 µM) of 0.354 and a relative viability ([17]; first compound 2.53 µM) of 0.336. The relative viability ([17]; first compound 8 µM) was 0.408, the relative viability ([18]; first compound 0.08 µM) was 0.751 and the relative viability ([18]; first compound 0.253 µM) was 1.01. For the same molecule, the relative viability ([18]; first compound 0.8 µM) was 0.73, the relative viability ([18]; first compound 2.53 µM) was 0.604 and the relative viability ([18]; first compound 8 µM) was 0.744. For the same molecule, the relative viability ([19]; first compound 0.08 µM) was 0.851, the relative viability ([19]; first compound 0.253 µM) was 0.735 and the relative viability ([19]; first compound 0.8 µM) was 0.789. For the same molecule, the relative viability ([19]; first compound 2.53 µM) was 0.859, the relative viability ([19]; first compound 8 µM) was 0.808 and the relative viability ([20]; first compound 0.08 µM) was 1.01. It also gave a relative viability ([20]; first compound 0.253 µM) of 0.987, a relative viability ([20]; first compound 0.8 µM) of 1.12 and a relative viability ([20]; first compound 2.53 µM) of 0.956. The relative viability ([20]; first compound 8 µM) was 1.09, the relative viability ([21]; first compound 0.08 µM) was 1.01 and the relative viability ([21]; first compound 0.253 µM) was 0.979. The relative viability ([21]; first compound 0.8 µM) was 0.992, the relative viability ([21]; first compound 2.53 µM) was 0.973 and the relative viability ([21]; first compound 8 µM) was 1.09. It also gave a relative viability ([22]; first compound 0.08 µM) of 0.67, a relative viability ([22]; first compound 0.253 µM) of 0.728 and a relative viability ([22]; first compound 0.8 µM) of 0.687. The relative viability ([22]; first compound 2.53 µM) was 0.581 and the relative viability ([22]; first compound 8 µM) was 0.673.
